Common to all, as to assay: inhibition of tumour cell growth, NCI panel, 48 h
Assay [1] concerns A549 NSCLC.
In assay [2] the test system is ACHN renal.
Assay [3] has as its system BT-549 breast.
In assay [4] the test system is COLO 205 colon.
The subject of assay [5] is HOP-92 NSCLC.
The subject of assay [6] is HS 578T breast.
Assay [7] has as its system OVCAR-5 ovarian.
Assay [8] relates to SK-MEL-5 melanoma.
In assay [9] the test system is SNB-19 CNS.
Assay [10] deals with UACC-62 melanoma.

Several values for one entry are separate records, joined by “and”; a condition that tells them apart may be missing. Equal entries are not always repeated.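 In this assay, cells in 96-well plates receive the compound at five concentrations for 48 hours. Endpoints are linearly interpolated between the surrounding concentrations. GI50 = concentration required for 50% inhibition of growth. TGI: concentration producing complete growth inhibition.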

For `Cc1[nH]c(=O)nc(Nc2ccc(Cl)cc2)c1C(=O)N1CCN(CCO)CC1`, the GI50 was greater than 100 µM in assay [1]; greater than 100 µM in [2]; 53.8 µM in assay [3]; greater than 100 µM in assay [4]; 28.7 µM in [5]; 34.2 µM in assay [6]. Besides, the GI50 was greater than 100 µM in [7], greater than 100 µM in assay [8], 33.8 µM in [9] and 94.8 µM in assay [10]. For the same molecule, the TGI in assay [1] is greater than 100 µM; in assay [2], greater than 100 µM; in assay [3] it was greater than 100 µM; in assay [4], greater than 100 µM; in [5] it was 71.6 µM; in [6] it was greater than 100 µM. Besides, the TGI in [7], in [8], in assay [9] and in [10] was greater than 100 µM each time.
Take `O=c1c(O)c(-c2ccc(O)c(O)c2)oc2cc(O)cc(O)c12`: the GI50 in [1] is 19.3 µM; in assay [2], 15.6 µM; in assay [3], 13.3 µM; in assay [4] it was 60.8 µM; in [5], 6.16 µM; in assay [6], 4.12 µM. Moreover, the GI50 in [7] is 30.2 µM; in assay [8], 9.24 µM; in assay [9] it was 13.1 µM; in assay [10], 4.74 µM. The TGI in assay [1] is greater than 100 µM; in assay [2] it was greater than 100 µM; in assay [3] it was 77.7 µM; in assay [4], greater than 100 µM; in [5], greater than 74.8 µM; in assay [6], greater than 50.7 µM. Also, the TGI is greater than 100 µM in assay [7]; 44 µM and > 100 µM in assay [8]; greater than 100 µM in assay [9]; 25.5 µM and > 100 µM in assay [10].
In the case of `Cn1cccc1-c1cc(-c2ccc(Br)cc2)[nH]c(=O)c1C#N`, the GI50 is greater than 100 µM in assay [1]; greater than 100 µM in [2]; 85.2 µM in [3]; greater than 100 µM in assay [4]; 27.8 µM in [5]; greater than 100 µM in assay [6]. In addition, the GI50 in [7] was greater than 100 µM; in assay [8], greater than 100 µM; in [9], greater than 100 µM; in assay [10], 49.2 µM. Moreover, the TGI in [1], in [2], in [3], in [4], in assay [5] and in [6] was greater than 100 µM each time. Also, the TGI in assay [7], in [8], in assay [9] and in assay [10] was greater than 100 µM throughout.
For the molecule `Cc1nn(-c2ccc(Cl)cc2)c2nc3c(nc12)C(=O)C(=O)c1ccccc1-3`, the GI50 was 2.06 µM in [1]; 19.5 µM in [2]; 1.57 µM in assay [3]; 2.03 µM in [4]; 0.18 µM in [5]; 2.08 µM in assay [6]. The GI50 was 12 µM in assay [7], 4.94 µM in assay [8], 2.48 µM in assay [9] and 8.45 µM in [10]. For the same molecule, the TGI in assay [1] was 4.08 µM; in [2], greater than 100 µM; in [3], 4.76 µM; in assay [4] it was 4.86 µM; in assay [5], 30.8 µM; in assay [6] it was 5.5 µM. In addition, the TGI was greater than 100 µM in assay [7], 24.1 µM in assay [8], 8.17 µM in assay [9] and 34.4 µM in [10].
Consider `COc1cc(/C=C/C(=O)c2ccc(F)cc2)ccc1OCCCN1CCN(CC(=O)Nc2ccc(Cl)cc2C(=O)c2ccccc2Cl)CC1`, for which the GI50 in assay [1] is 15.9 µM; in assay [2] it was 12.5 µM; in assay [3], 10.8 µM; in [4] it was 4.47 µM; in assay [5], 1.38 µM; in assay [6], 7.01 µM. The GI50 was 13.4 µM in assay [7], 3.42 µM in [8], 18.9 µM in assay [9] and 10.4 µM in [10]. Further, the TGI in [1] is greater than 100 µM; in [2], 32.3 µM; in assay [3], 26.2 µM; in assay [4], 23.8 µM; in assay [5], 10.3 µM; in assay [6], 46.3 µM. Besides, the TGI in assay [7] is greater than 100 µM; in assay [8], 14.7 µM; in assay [9], 49.2 µM; in assay [10], 22.9 µM.
As to `COc1cc([N+](=O)[O-])c(OC)cc1-c1nc2sccn2c1/C=N/N=C(N)N`, the GI50 in assay [1] was 20.8 µM; in assay [2] it was 12.8 µM; in assay [3], 18.6 µM; in assay [4], 66 µM; in [5], 19.3 µM; in assay [6], 19 µM. Further, the GI50 was 53.8 µM in [7], 33.7 µM in assay [8], 8.52 µM in assay [9] and 27.7 µM in [10]. Also, the TGI in assay [1] is 68.7 µM; in assay [2] it was 28.8 µM; in [3] it was 42.2 µM; in assay [4], greater than 100 µM; in assay [5], 45.4 µM; in assay [6] it was 43.9 µM. For the same molecule, the TGI was greater than 100 µM in assay [7], greater than 100 µM in assay [8], greater than 100 µM in assay [9] and 70.5 µM in [10].
Turning to `Cc1cnc(CNC(=O)c2c(=O)c3ccc(N4CCCN(C)CC4)nc3n3c2sc2ccccc23)cn1`, the GI50 was 0.33 µM in [1]; 0.305 µM in assay [2]; 12.6 µM in [3]; 1.07 µM in assay [4]; 16.4 µM in assay [5]; 16.6 µM in [6]. In addition, the GI50 in assay [7] is 13.2 µM; in [8], 8.35 µM; in assay [9], 1.52 µM; in assay [10], 7.69 µM. The TGI in assay [1] was found to be 7.23 µM; in assay [2], 14.9 µM; in assay [3] it was 28.4 µM; in assay [4], 22.8 µM; in assay [5] it was 32.2 µM; in [6], 47.4 µM. The TGI in assay [7] came out at 28.9 µM; in assay [8] it was 22.1 µM; in assay [9], 10.1 µM; in assay [10], 28.1 µM.
